These results are taken from ChEMBL document CHEMBL3784917, “Recent Progress in Histone Demethylase Inhibitors” (J Med Chem, 2016).

The nature of assay [1]: Antiproliferative activity against human KMS-12-BM cells assessed as reduction in cell viability after 120 hrs by ATPlite assay. In kind it is functional, cell-based. On the technique in general: Cellular ATP, detected with luciferase, serves as a proxy for viable cell number.
A short description of assay [2]: Antiproliferative activity against human SU-DHL6 cells assessed as reduction in cell viability after 120 hrs by ATPlite assay. It counts as functional, cell-based. The conditions noted are these: SU-DHL-6, 120 h.
A short description of assay [3]: Antiproliferative activity against human NALM6 cells assessed as reduction in cell viability after 120 hrs by ATPlite assay. It counts as functional, cell-based. The conditions noted are these: NALM-6, 120 h.
Assay [4] has as its target Egl nine homolog 1 (Homo sapiens, UniProt Q9GZT9). The assay is described as follows: Inhibition of PHD2 (unknown origin) preincubated for 15 mins followed by histone substrate addition measured after 1 hr by alphascreen assay.
The target of assay [5] is T1, Lysine-specific demethylase 4C (Homo sapiens, UniProt Q9H3R0).
T1 sequence (Q9H3R0 whole entry): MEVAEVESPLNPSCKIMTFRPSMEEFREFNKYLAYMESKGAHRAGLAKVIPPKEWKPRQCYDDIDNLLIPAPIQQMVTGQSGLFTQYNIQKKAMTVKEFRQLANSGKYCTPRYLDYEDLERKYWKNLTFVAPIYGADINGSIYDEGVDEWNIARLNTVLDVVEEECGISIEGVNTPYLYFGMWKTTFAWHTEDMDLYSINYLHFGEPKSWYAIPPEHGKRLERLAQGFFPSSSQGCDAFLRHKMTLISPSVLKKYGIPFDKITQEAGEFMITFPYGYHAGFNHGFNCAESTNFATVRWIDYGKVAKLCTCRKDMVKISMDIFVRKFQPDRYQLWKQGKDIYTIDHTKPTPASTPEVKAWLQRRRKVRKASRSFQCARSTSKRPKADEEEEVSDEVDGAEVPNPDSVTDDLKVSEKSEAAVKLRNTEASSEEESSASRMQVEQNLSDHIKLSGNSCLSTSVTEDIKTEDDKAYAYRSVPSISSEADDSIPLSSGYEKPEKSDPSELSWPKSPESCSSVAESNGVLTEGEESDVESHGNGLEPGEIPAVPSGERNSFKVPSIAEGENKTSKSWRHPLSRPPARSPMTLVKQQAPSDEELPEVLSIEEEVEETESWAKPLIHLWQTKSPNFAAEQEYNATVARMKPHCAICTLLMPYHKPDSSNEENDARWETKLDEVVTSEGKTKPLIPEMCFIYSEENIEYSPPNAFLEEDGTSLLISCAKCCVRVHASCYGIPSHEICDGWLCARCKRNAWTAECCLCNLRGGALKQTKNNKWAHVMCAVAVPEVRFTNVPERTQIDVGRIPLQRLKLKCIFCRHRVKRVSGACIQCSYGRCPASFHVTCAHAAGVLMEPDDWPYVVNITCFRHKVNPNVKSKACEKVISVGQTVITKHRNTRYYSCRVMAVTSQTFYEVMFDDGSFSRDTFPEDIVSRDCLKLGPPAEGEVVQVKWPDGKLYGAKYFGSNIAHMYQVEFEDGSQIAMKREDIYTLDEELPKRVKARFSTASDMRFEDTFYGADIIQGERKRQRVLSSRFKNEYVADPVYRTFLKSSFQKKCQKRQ
The assay is described as follows: Inhibition of KDM4C (unknown origin) preincubated for 15 mins followed by histone substrate addition measured after 1 hr by alphascreen assay. (In general: In Alpha technology, singlet oxygen from a donor bead excites a nearby acceptor bead.)

Chain of Egl nine homolog 1 (Q9GZT9 whole entry): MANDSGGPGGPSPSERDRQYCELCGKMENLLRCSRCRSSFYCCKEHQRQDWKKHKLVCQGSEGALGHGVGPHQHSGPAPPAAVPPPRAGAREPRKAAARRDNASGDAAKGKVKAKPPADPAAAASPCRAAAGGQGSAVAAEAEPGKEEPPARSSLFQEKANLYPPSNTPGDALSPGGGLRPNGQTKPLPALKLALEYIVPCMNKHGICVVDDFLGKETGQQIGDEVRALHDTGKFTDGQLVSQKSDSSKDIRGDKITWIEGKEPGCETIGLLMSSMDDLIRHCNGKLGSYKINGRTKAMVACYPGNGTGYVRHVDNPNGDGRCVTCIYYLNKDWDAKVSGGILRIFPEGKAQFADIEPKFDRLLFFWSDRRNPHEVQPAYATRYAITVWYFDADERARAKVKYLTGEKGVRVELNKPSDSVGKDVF

By EC50 is commonly meant the concentration needed to bring the measured effect to its halfway point. Regarding `CCN(CCN(C)C)C(=O)CNCc1cc(CNC(=O)C(F)(F)F)ccn1`, the EC50 in assay [1] and in assay [2] was < 0.25 µM each time.

For `CCN(CC)CCCCNCc1cc(C=O)ccn1`, the 50% effective concentration (EC50) in assay [3] is < 0.25 µM.

As a reminder, the IC50 is the concentration that inhibits the measured activity by half. In the case of `Cc1ccsc1C(NC(=O)c1ccccc1)c1cc(Cl)c2cccnc2c1O` (racemic), the IC50 in assay [4] was 96 µM; in assay [5], 5 µM.
